For experiment [1], the target named is Bile salt export pump (Homo sapiens, UniProt O95342). Briefly: Inhibition of human BSEP overexpressed in Sf9 cell membrane vesicles assessed as uptake of [3H]-taurocholate in presence of ATP measured after 15 to 20 mins by membrane vesicle transport assay. In kind it is ADME, cell-based.
Experiment [2] deals with T1, ATP-binding cassette sub-family C member 4 (Homo sapiens, UniProt O15439).
T1 sequence (O15439 whole entry): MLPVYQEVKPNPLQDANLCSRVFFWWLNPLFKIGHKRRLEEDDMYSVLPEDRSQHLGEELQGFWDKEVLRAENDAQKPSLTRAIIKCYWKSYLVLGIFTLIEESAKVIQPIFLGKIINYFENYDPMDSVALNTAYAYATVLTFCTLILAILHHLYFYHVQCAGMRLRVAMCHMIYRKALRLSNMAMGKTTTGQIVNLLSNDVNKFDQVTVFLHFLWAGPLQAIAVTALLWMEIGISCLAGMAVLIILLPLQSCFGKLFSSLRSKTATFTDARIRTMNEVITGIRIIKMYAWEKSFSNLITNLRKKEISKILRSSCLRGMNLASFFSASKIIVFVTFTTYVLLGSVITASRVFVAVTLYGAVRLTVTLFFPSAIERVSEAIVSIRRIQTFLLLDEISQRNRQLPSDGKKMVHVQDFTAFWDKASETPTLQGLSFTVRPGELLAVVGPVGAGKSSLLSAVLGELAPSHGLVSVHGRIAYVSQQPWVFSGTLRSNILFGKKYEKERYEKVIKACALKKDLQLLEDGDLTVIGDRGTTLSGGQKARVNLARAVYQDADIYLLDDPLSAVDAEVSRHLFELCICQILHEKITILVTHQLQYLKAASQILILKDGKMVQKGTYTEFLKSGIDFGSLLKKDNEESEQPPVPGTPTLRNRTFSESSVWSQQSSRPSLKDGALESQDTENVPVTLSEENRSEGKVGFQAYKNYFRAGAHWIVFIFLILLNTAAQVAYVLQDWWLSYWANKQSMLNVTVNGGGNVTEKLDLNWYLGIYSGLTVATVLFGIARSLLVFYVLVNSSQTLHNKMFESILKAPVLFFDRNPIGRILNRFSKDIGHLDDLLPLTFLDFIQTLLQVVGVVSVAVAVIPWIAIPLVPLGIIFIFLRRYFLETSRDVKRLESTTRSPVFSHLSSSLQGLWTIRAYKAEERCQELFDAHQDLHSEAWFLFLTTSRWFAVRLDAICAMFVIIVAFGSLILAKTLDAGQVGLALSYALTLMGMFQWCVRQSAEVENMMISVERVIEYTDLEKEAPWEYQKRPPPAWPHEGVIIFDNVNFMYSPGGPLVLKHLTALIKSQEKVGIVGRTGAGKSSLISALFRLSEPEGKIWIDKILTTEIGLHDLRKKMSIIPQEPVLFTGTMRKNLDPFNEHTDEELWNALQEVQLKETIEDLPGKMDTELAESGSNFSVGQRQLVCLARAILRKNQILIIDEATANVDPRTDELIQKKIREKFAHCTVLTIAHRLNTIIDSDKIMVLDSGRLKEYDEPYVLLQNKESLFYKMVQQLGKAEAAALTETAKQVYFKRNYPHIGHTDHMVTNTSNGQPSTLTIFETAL
Kind of experiment: Inhibition of human MRP4 overexpressed in Sf9 cell membrane vesicles assessed as uptake of [3H]-estradiol-17beta-D-glucuronide in presence of ATP and GSH measured after 20 mins by membrane vesicle transport assay. In kind it is ADME, cell-based.

Experiment [3] has as its target ATP-binding cassette sub-family C member 3 (Homo sapiens, UniProt O15438). Kind of experiment: Inhibition of human MRP3 overexpressed in Sf9 insect cell membrane vesicles assessed as uptake of [3H]-estradiol-17beta-D-glucuronide in presence of ATP and GSH measured after 10 mins by membrane vesicle transport assay. In kind it is ADME, cell-based.
Experiment [4] deals with ATP-binding cassette sub-family C member 2 (Homo sapiens, UniProt Q92887). Briefly: Inhibition of human MRP2 overexpressed in Sf9 cell membrane vesicles assessed as uptake of [3H]-estradiol-17beta-D-glucuronide in presence of ATP and GSH measured after 20 mins by membrane vesicle transport assay.

These results are taken from ChEMBL document CHEMBL4028801, “A multifactorial approach to hepatobiliary transporter assessment enables improved therapeutic compound development” (Toxicol Sci, 2013).

Where a name gives a salt, the structure may show the parent alone. A value given as a limit tells only on which side of the number the result lay.

ATP-binding cassette sub-family C member 2, sequence (Q92887 whole entry): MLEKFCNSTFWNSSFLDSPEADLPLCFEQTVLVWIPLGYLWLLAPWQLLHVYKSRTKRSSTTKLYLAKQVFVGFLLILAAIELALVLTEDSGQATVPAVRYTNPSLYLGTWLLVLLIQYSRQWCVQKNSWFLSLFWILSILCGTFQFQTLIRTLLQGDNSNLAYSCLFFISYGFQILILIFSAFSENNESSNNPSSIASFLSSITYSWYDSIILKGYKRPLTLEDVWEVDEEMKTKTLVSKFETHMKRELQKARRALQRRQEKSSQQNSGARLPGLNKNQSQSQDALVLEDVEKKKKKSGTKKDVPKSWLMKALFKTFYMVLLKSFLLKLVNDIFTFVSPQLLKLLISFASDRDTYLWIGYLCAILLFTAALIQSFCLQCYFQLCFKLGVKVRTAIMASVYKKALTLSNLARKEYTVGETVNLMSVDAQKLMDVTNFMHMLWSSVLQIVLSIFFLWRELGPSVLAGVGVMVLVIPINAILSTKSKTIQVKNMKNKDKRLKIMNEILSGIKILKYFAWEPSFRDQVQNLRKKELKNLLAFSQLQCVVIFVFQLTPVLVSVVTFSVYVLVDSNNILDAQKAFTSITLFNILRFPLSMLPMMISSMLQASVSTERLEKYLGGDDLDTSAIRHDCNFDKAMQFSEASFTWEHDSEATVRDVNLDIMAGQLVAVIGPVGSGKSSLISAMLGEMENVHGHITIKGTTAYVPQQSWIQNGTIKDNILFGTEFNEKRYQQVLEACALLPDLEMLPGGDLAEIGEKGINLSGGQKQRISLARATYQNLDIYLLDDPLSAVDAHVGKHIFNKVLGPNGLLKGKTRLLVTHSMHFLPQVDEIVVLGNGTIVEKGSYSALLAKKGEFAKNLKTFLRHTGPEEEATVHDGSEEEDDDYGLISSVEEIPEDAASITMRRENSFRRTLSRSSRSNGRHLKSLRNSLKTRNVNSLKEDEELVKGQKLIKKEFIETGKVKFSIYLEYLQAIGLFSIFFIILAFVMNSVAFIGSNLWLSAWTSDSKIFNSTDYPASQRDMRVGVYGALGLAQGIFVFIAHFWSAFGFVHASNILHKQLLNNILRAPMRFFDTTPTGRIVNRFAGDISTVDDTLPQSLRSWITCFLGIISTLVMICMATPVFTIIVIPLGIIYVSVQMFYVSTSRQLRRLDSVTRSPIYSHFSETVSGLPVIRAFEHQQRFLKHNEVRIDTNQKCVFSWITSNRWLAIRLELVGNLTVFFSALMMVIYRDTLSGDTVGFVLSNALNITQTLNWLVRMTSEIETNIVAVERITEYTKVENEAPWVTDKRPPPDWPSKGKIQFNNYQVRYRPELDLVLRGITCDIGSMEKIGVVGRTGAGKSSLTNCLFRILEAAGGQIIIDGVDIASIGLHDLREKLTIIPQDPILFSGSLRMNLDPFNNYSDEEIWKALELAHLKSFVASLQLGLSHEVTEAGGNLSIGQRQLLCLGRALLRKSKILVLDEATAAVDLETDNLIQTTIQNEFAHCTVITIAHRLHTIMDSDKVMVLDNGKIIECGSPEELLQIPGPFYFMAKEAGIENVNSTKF
ATP-binding cassette sub-family C member 3, sequence (O15438 whole entry): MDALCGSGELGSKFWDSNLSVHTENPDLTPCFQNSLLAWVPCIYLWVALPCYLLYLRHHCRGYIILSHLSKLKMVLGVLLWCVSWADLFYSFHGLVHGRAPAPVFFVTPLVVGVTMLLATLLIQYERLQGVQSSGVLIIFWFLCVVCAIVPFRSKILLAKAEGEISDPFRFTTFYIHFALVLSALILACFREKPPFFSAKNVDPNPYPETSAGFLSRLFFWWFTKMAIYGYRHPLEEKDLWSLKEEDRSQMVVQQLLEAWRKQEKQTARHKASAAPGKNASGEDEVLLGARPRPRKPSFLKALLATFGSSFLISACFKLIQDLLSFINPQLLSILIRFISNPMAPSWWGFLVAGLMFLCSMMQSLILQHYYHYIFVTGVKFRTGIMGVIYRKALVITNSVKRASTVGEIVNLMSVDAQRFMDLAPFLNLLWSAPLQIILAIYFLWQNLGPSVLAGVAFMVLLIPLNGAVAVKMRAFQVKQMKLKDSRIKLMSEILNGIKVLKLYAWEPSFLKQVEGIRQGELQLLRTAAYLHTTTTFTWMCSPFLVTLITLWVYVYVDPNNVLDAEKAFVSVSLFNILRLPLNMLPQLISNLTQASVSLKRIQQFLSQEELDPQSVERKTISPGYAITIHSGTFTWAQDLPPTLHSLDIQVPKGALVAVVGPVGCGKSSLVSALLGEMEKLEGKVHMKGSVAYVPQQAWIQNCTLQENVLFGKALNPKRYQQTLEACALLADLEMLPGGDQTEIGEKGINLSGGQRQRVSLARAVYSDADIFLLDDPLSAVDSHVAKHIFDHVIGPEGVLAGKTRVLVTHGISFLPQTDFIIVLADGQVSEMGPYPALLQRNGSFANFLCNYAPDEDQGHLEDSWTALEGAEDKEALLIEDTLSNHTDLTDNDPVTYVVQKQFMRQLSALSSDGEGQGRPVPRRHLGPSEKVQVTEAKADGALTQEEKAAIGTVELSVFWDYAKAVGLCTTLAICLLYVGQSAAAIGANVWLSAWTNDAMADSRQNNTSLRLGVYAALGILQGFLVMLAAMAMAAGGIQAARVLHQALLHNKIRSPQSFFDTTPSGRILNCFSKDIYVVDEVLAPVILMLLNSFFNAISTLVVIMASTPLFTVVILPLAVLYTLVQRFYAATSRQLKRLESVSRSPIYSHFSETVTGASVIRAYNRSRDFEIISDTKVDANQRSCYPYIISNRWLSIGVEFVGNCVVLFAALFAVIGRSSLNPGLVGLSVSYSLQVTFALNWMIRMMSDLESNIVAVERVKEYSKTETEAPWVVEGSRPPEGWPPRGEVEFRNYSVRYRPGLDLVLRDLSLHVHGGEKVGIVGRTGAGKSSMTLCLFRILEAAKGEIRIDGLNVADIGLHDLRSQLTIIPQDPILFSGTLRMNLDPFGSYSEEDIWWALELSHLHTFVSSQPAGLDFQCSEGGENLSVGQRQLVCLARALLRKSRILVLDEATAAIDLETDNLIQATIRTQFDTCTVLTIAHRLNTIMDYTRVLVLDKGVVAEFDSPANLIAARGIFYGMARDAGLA
Bile salt export pump, sequence (O95342 whole entry): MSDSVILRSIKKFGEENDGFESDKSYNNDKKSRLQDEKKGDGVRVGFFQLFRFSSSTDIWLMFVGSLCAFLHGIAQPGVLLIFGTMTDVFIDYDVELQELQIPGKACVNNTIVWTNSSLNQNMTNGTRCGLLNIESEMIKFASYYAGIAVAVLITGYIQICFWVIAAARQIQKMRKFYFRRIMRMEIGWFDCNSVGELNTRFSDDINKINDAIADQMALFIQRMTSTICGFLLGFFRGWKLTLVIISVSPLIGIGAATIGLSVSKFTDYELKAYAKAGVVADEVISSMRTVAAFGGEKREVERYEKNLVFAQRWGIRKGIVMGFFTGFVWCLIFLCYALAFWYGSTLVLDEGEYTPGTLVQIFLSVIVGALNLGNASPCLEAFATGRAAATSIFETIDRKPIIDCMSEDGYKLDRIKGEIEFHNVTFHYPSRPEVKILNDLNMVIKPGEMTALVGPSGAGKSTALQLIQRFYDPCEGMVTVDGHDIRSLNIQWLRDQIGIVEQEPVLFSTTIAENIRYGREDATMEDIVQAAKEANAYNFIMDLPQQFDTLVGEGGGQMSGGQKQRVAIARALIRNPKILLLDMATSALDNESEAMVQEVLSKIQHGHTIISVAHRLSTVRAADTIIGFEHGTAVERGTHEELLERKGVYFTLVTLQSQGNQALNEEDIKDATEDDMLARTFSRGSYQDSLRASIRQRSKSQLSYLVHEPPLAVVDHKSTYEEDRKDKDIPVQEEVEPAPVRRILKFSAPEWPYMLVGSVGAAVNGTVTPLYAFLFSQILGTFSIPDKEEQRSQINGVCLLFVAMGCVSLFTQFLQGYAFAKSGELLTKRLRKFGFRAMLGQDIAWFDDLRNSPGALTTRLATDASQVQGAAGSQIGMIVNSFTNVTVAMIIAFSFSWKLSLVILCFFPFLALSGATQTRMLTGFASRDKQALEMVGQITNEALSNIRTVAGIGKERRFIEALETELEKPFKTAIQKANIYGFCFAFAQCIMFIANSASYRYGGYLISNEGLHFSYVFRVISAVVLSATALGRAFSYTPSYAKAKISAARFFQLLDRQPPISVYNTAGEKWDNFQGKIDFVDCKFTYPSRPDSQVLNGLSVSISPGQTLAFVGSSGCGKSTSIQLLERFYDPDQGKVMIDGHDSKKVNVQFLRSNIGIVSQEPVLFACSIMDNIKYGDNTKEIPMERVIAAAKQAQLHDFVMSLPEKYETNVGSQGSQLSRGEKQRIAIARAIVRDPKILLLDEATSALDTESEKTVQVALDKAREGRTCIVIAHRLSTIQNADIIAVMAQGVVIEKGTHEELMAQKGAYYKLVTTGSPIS

For orientation: IC50 means the concentration that inhibits the measured activity by half. For `OCc1cc(C(O)CNCCCCCCOCCCCc2ccccc2)ccc1O` (stereo not given) [SALMETEROL XINAFOATE], the IC50 in experiment [1], in experiment [2], in experiment [3] and in experiment [4] was > 133 µM each time.

`O=P1(N(CCCl)CCCl)NCCCO1` (stereo not given) [CYCLOPHOSPHAMIDE ANHYDROUS]: the half-maximal inhibitory concentration (IC50) in experiment [1], in experiment [2], in experiment [3] and in experiment [4] was > 133 µM in each case.

`O=[N+]([O-])C(Br)(CO)CO` [BRONOPOL]: the 50% inhibitory concentration (IC50) in experiment [1], in experiment [2], in experiment [3] and in experiment [4] was > 133 µM throughout.

With `Nc1ccn([C@H]2CC[C@@H](CO)O2)c(=O)n1` [ZALCITABINE], the half-inhibitory concentration (IC50) in experiment [1], in experiment [2], in experiment [3] and in experiment [4] was > 133 µM throughout.

In the case of `CCCN1C[C@H](CSC)C[C@@H]2c3cccc4[nH]cc(c34)C[C@H]21` [PERGOLIDE MESYLATE], the IC50 in experiment [1], in experiment [2], in experiment [3] and in experiment [4] was > 133 µM each time.

On to `C[C@@](Cc1ccc(O)c(O)c1)(NN)C(=O)O` [CARBIDOPA ANHYDROUS], for which the IC50 in experiment [1], in experiment [2], in experiment [3] and in experiment [4] was > 133 µM each time.

For the molecule `O=c1[nH]cc(F)c(=O)[nH]1` [FLUOROURACIL], the half-maximal inhibitory concentration (IC50) in experiment [1], in experiment [2], in experiment [3] and in experiment [4] was > 133 µM each time.

On to `NCc1ccc(S(N)(=O)=O)cc1` [MAFENIDE ACETATE], for which the IC50 in experiment [1], in experiment [2], in experiment [3] and in experiment [4] was > 133 µM each time.

Take `CCCCCCCCCC(=O)N[C@@H](Cc1c[nH]c2ccccc12)C(=O)N[C@H](CC(N)=O)C(=O)N[C@@H](CC(=O)O)C(=O)N[C@@H]1C(=O)NCC(=O)N[C@@H](CCCN)C(=O)N[C@@H](CC(=O)O)C(=O)N[C@H](C)C(=O)N[C@@H](CC(=O)O)C(=O)NCC(=O)N[C@H](CO)C(=O)N[C@@H]([C@H](C)CC(=O)O)C(=O)N[C@@H](CC(=O)c2ccccc2N)C(=O)O[C@@H]1C` [DAPTOMYCIN]: the IC50 in experiment [1] is > 133 µM; in experiment [2] it was > 133 µM; in experiment [3] it was > 133 µM; in experiment [4], 29.1 µM.

Regarding `NNC(=O)c1ccncc1` [ISONIAZID], the IC50 in experiment [1], in experiment [2], in experiment [3] and in experiment [4] was > 133 µM each time.

As for `CC(=O)Nc1c(I)c(NC(C)=O)c(I)c(C(=O)O)c1I` [DIATRIZOIC ACID], the concentration for half-maximal inhibition (IC50) in experiment [1], in experiment [2], in experiment [3] and in experiment [4] was > 133 µM each time.

On to `CC(=O)Nc1ccc(O)cc1` [ACETAMINOPHEN], for which the concentration for half-maximal inhibition (IC50) in experiment [1], in experiment [2], in experiment [3] and in experiment [4] was > 133 µM in each case.

As to `OCCN1C[C@H](O)[C@@H](O)[C@H](O)[C@H]1CO` [MIGLITOL], the concentration for half-maximal inhibition (IC50) in experiment [1], in experiment [2], in experiment [3] and in experiment [4] was > 133 µM each time.

As for `CC(C)C[C@H](NC(=O)[C@H](Cc1ccccc1)NC(=O)c1cnccn1)B(O)O` [BORTEZOMIB], the IC50 in experiment [1], in experiment [2], in experiment [3] and in experiment [4] was > 133 µM throughout.

On to `Oc1ccc2c(c1)[C@@]13CCCC[C@@]1(O)[C@@H](C2)N(CC1CCC1)CC3` [BUTORPHANOL], for which the IC50 in experiment [1], in experiment [2], in experiment [3] and in experiment [4] was > 133 µM throughout.

`CCOC(=O)c1ccc(C#Cc2ccc3c(c2)C(C)(C)CCS3)nc1` [TAZAROTENE]: the concentration for half-maximal inhibition (IC50) in experiment [1], in experiment [2], in experiment [3] and in experiment [4] was > 133 µM in each case.

Take `CC[C@@]1(O)C(=O)OCc2c1cc1n(c2=O)Cc2cc3ccccc3nc2-1` [CAMPTOTHECIN]: the IC50 in experiment [1] was > 133 µM; in experiment [2], 7.4 µM; in experiment [3], > 133 µM; in experiment [4] it was > 133 µM.

With `CC[C@@]1(O)C(=O)OCc2c1cc1n(c2=O)Cc2cc3c([N+](=O)[O-])cccc3nc2-1` [RUBITECAN], the half-maximal inhibitory concentration (IC50) in experiment [1] is > 133 µM; in experiment [2], 5.1 µM; in experiment [3], 10.2 µM; in experiment [4], 60.5 µM.

For `Cc1ccc(C(=O)Nc2ccc(S(=O)(=O)O)c3cc(S(=O)(=O)O)cc(S(=O)(=O)O)c23)cc1NC(=O)c1cccc(NC(=O)Nc2cccc(C(=O)Nc3cc(C(=O)Nc4ccc(S(=O)(=O)O)c5cc(S(=O)(=O)O)cc(S(=O)(=O)O)c45)ccc3C)c2)c1` [SURAMIN], the half-inhibitory concentration (IC50) in experiment [1] was > 133 µM; in experiment [2] it was > 133 µM; in experiment [3], > 133 µM; in experiment [4] it was 36.8 µM.

Take `NCCCC(N)(C(=O)O)C(F)F` (stereo not given) [EFLORNITHINE HYDROCHLORIDE]: the IC50 in experiment [1], in experiment [2], in experiment [3] and in experiment [4] was > 133 µM throughout.

On to `CC(C)(C#N)c1cc(Cn2cncn2)cc(C(C)(C)C#N)c1` [ANASTROZOLE], for which the half-inhibitory concentration (IC50) in experiment [1], in experiment [2], in experiment [3] and in experiment [4] was > 133 µM in each case.

For the molecule `CNCC[C@H](Oc1cccc2ccccc12)c1cccs1` [DULOXETINE HYDROCHLORIDE], the 50% inhibitory concentration (IC50) in experiment [1], in experiment [2], in experiment [3] and in experiment [4] was > 133 µM throughout.

In the case of `Oc1ncnc2[nH]ncc12` [ALLOPURINOL], the half-maximal inhibitory concentration (IC50) in experiment [1], in experiment [2], in experiment [3] and in experiment [4] was > 133 µM throughout.

Turning to `CC[C@H](C)[C@@H]1NC(=O)[C@H](Cc2ccc(O)cc2)NC(=O)[C@@H](N)CSSC[C@@H](C(=O)N2CCC[C@H]2C(=O)N[C@@H](CC(C)C)C(=O)NCC(N)=O)NC(=O)[C@H](CC(N)=O)NC(=O)[C@H](CCC(N)=O)NC1=O`, the half-inhibitory concentration (IC50) in experiment [1], in experiment [2], in experiment [3] and in experiment [4] was > 133 µM in each case.

Take `CCCNCC(O)COc1ccccc1C(=O)CCc1ccccc1` (stereo not given) [PROPAFENONE]: the half-maximal inhibitory concentration (IC50) in experiment [1], in experiment [2], in experiment [3] and in experiment [4] was > 133 µM each time.

As for `CCN1CCC[C@H]1CNC(=O)c1cc(S(N)(=O)=O)ccc1OC` [LEVOSULPIRIDE], the IC50 in experiment [1], in experiment [2], in experiment [3] and in experiment [4] was > 133 µM each time.

Consider `O=c1c(O)c(-c2ccc(O)c(O)c2)oc2cc(O)cc(O)c12` [QUERCETIN], for which the IC50 in experiment [1] is > 133 µM; in experiment [2] it was 20.8 µM; in experiment [3], > 133 µM; in experiment [4], > 133 µM.

As for `CCOC(=O)/C=C(C)/C=C/C=C(C)/C=C/c1c(C)cc(OC)c(C)c1C` [ETRETINATE], the 50% inhibitory concentration (IC50) in experiment [1], in experiment [2], in experiment [3] and in experiment [4] was > 133 µM each time.

For `CN(C)CCC[C@@]1(c2ccc(F)cc2)OCc2cc(C#N)ccc21` [ESCITALOPRAM OXALATE], the IC50 in experiment [1], in experiment [2], in experiment [3] and in experiment [4] was > 133 µM each time.

For the molecule `CN1CC(=O)N2[C@H](c3ccc4c(c3)OCO4)c3[nH]c4ccccc4c3C[C@@H]2C1=O`, the IC50 in experiment [1], in experiment [2], in experiment [3] and in experiment [4] was > 133 µM in each case.
